According to US20150273010A1 (priority 2012, published 2015):

Experiments:
Assay type in all cases: cell-based
[1] = tested on: self-inactivating pseudo-typed HIV-1 (sinHIV-GFP); assay: sinHIV-GFP infection screen of SupT1 cells expressing nuclear random peptide library (FACS); conditions: clones isolated after 12 rounds of infection/selection; compared to the mCherry control
Description: A retroviral random peptide library localized to the nucleus, 3XF(GGS)3 NLS RPL, was used to search for novel inhibitors of HIV-1. In order to screen a population of SupT1 expressing this library, a self-inactivating pseudo-typed HIV-1 carrying a pCMV-GFP expression cassette was utilized. The 3XF(GGS)3 NLS RPL SupT1 cells and cells expressing pBMN.i.mCherry were then screened by infection with sinHIV-GFP. 72 hours post-infection, the cells were sorted by Fluorescence Activated Cell Sorting (FACS) based on the expression of GFP, retaining and expanding GFP-negative cells in culture. […] Following 12 rounds of infection, selection of non-fluorescent cells and amplification of the 3XF(GGS)3 NLS RPL expressing SupT1 cells, eight clones were isolated, and expanded in culture.

[2] = target: T1, HIV-1 PR (Human immunodeficiency virus type 1 group M subtype B, UniProt P04585)
From the text: For that purpose, the well-characterized PR/RT and RT/IN HIV-1 boundaries were introduced between the Gal4 domains.

[3] = target: T1, HIV-1 PR; conditions: 293T cells, PR/RT cleavage site, added as PI
[4] = target: T1, HIV-1 PR; conditions: HEK 293T co-transfected with p55 and PR, 48 hours post-transfection, PI present
Description: Transfected cells were analyzed 48 hours post-transfection with anti-p24 antibody. […] Quantification of the Western blots by IMAGEJ™ (ImageJ™) software. Band intensities are plotted as a ratio of p24 to p55.
We performed a biochemical assay to assess PR activity based on its ability to cleave one of its natural substrates—the p55 Gag poly-protein. For this purpose, p96ZM651gag-opt (from the NIH AIDS reagent program) with humanized codons for optimal expression, was used as substrate. Cells were co-transfected with p55 and PR in the presence or absence of Ritonavir as PI. Cells were then analyzed by western blot 48 hours post-transfection with antibodies against HIV p24, capsid (NIH AIDS reagent program).

[5] = target: T1, HIV-1 PR; conditions: 10 μM; Gal4/PR SupT1 clones, 1 μg/mL Dox
[6] = tested on: SupT1 cells; assay: Toxicity of PI to cells during the Gal4/library/PR screen; conditions: 100.M Indinavir, with PR as part of a fusion, time frame required for the screen
From the text: The screen starts with the addition of Dox. In alternative embodiments, cells can be non-fluorescent and not contain a Gal4/library fusion protein at all, or they can express a fusion protein cleaved by HIV-1 PR or cellular proteases. Cells expressing a non-cleaved fusion can be fluorescent (FIG. 10A panel a) as they will be able to activate the E2-Crimson reporter. This population is not of interest in this screen. In alternative embodiments, the non-fluorescent population is sorted and expanded (FIG. 10A panel b). In alternative embodiments, cells are then treated again with Dox, but this time in the presence of PI (100.M Indinavir). We have shown that Indinavir at this concentration, and PR as part of a fusion, are not toxic at least for the time frame required for the screen. Only the subpopulation of cells that express a substrate specific for PR should turn fluorescent and thus be E2-Crimson positive (FIG. 10A panel c). In alternative embodiments, this population is sorted and amplified (FIG. 10A panel d) and used to obtain individual clonal populations by growing individual cells in a 96-well format.

Thr Arg Arg Val Ala His Asn Ser Glu (TRRVAHNSE) [Clone 2]
decrease in sinHIV-GFP infection rate [1]: largest decrease

CC(C)CN(C[C@@H](O)[C@H](Cc1ccccc1)NC(=O)O[C@H]1CO[C@H]2OCC[C@H]21)S(=O)(=O)c1ccc(N)cc1 [Darunavir, darunavir]
inhibition of PR-dependent decrease in E2-C fluorescence [2]: strongly inhibited | reversal of PR-dependent reduction in green fluorescence [3]: the trend was reversed

Trp Arg Gly Ala Ala Met Val Arg Gly (WRGAAMVRG) [Clone 6]
decrease in sinHIV-GFP infection rate [1]: largest decrease

CC(C)c1nc(CN(C)C(=O)N[C@H](C(=O)N[C@@H](Cc2ccccc2)C[C@H](O)[C@H](Cc2ccccc2)NC(=O)OCc2cncs2)C(C)C)cs1 [Ritonavir]
p55 Gag poly-protein processing by PR [4]: poly-protein processing is hindered

CC(C)(C)NC(=O)[C@@H]1CN(Cc2cccnc2)CCN1C[C@@H](O)C[C@@H](Cc1ccccc1)C(=O)N[C@H]1c2ccccc2C[C@H]1O [Indinavir]
PR inhibition read as GFP induction [5]: inhibited PR, allowing robust GFP induction | toxicity [6]: not toxic
